Measurements from US20160145247A1, “Aminomethyl-Biaryl Derivatives Complement Factor D inhibitors and uses thereof” (NOVARTIS AG, priority 2013, published 2016).
pIC50: −log10 of the molar value.

Biological target: T1, factor D (Homo sapiens, UniProt P00746)
T1 construct: made in house; host or cells: E. coli
Assay: factor D inhibition assay of Biological Example 2
Assay type: biochemical

T1 sequence (P00746 26-253): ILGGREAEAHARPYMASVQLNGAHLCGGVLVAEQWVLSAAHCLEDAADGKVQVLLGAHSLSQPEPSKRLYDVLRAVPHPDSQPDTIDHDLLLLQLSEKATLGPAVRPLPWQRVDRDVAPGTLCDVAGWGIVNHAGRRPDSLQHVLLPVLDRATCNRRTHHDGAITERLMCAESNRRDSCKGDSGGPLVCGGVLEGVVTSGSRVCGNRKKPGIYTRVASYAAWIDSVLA

| SMILES | pIC50 |
| --- | --- |
| CC(=O)Nc1cc(C(=O)Nc2ccccc2CC(=O)O)cc(-c2cc(F)cc(CN)c2)c1 [Example 67-B, 2-(2-(5-Acetamido-3′-(aminomethyl)-5′-fluoro-[1,1′-biphenyl]-3-ylcarboxamido)phenyl)acetic acid] | 7.52 |
| CCOC(=O)Cc1ccccc1NC(=O)c1cc(NC(C)=O)cc(-c2cc(F)cc(CN)c2)c1 [Example 67-C, Ethyl 2-(2-(5-acetamido-3′-(aminomethyl)-5′-fluoro-[1,1′-biphenyl]-3-ylcarboxamido)phenyl)acetate] | 5.53 |
| NCc1cc(F)cc(-c2cc(OCc3ncccn3)cc(C(=O)Nc3ccccc3CC(=O)O)c2)c1 [Example 68, 2-(2-(3′-(Aminomethyl)-5′-fluoro-5-(pyrimidin-2-ylmethoxy)-[1,1′-biphenyl]-3-ylcarboxamido)phenyl)acetic acid] | 7.70 |
| Cn1ccc(COc2cc(C(=O)Nc3ccccc3CC(=O)O)cc(-c3cc(F)cc(CN)c3)c2)n1 [Example 69, 2-(2-(3′-(Aminomethyl)-5′-fluoro-5-((1-methyl-1H-pyrazol-3-yl)methoxy)-[1,1′-biphenyl]-3-ylcarboxamido)phenyl)acetic acid] | 7.59 |
| CNC(=O)c1cc(COc2cc(C(=O)Nc3ccccc3CC(=O)O)cc(-c3cccc(CN)c3)c2)ccn1 [Example 70, 2-(2-(3′-(Aminomethyl)-5-((2-(methylcarbamoyl)pyridin-4-yl)methoxy)-[1,1′-biphenyl]-3-ylcarboxamido)phenyl)acetic acid] | 7.96 |
| COCCOc1cc(C(=O)Nc2ccccc2CC(=O)O)cc(-c2cccc(CN)c2)c1 [Example 72-B, 2-(2-(3′-(Aminomethyl)-5-(2-methoxyethoxy)-[1,1′-biphenyl]-3-ylcarboxamido)phenyl)acetic acid] | 7.24 |
| NCc1cc(F)cc(-c2cc(OC[C@H]3CCCO3)cc(C(=O)Nc3ccccc3CC(=O)O)c2)c1 [Example 76, (R)-2-(2-(3′-(Aminomethyl)-5′-fluoro-5-((tetrahydrofuran-2-yl)methoxy)-[1,1′-biphenyl]-3-ylcarboxamido)phenyl)acetic acid] | 8.22 |
| Cn1nc(C2CC2)cc1Nc1cc(C(=O)Nc2ccccc2CC(=O)O)cc(-c2cc(F)cc(CN)c2)c1 [Example 78-B, 2-(2-(3′-(Aminomethyl)-5-((3-cyclopropyl-1-methyl-1H-pyrazol-5-yl)amino)-5′-fluoro-[1,1′-biphenyl]-3-ylcarboxamido)phenyl)acetic acid] | 7.66 |
| Cn1ccc(Nc2cc(C(=O)Nc3ccccc3CC(=O)O)cc(-c3cc(F)cc(CN)c3)c2)n1 [Example 79-C] | 7.66 |
| NCc1cc(F)cc(-c2cc(NC3CCOCC3)cc(C(=O)Nc3ccccc3CC(=O)O)c2)c1 [Example 79-D] | 7.85 |
| NCc1cc(F)cc(-c2cc(NCC3CCOCC3)cc(C(=O)Nc3ccccc3CC(=O)O)c2)c1 [Example 79-E] | 7.92 |
| NCc1cc(F)cc(-c2cc(NC[C@@H]3CCCO3)cc(C(=O)Nc3ccccc3CC(=O)O)c2)c1 [Example 79-F] | 8.22 |
| NCc1cc(F)cc(-c2cc(Nc3ccn[nH]3)cc(C(=O)Nc3ccccc3CC(=O)O)c2)c1 [Example 79-G] | 7.66 |
| N[C@H](CO)c1cccc(-c2cc(C(=O)Nc3ccccc3CC(=O)O)cc(-c3cccc([C@H](N)CO)c3)c2)c1 [Example 82-B, 2-(2-(3,3″-bis((S)-1-amino-2-hydroxyethyl)-[1,1′:3′,1″-terphenyl]-5′-ylcarboxamido)phenyl)acetic acid] | 7.72 |
| CCOC(=O)Cc1ccccc1NC(=O)c1cc(NC[C@H]2CCCO2)cc(-c2cc(F)cc(CN)c2)c1 [Example 85, (R)-Ethyl 2-(2-(3′-(aminomethyl)-5′-fluoro-5-(((tetrahydrofuran-2-yl)methyl)amino)-[1,1′-biphenyl]-3-ylcarboxamido)phenyl)acetate] | 6.15 |
| C[C@@H](N)c1cccc(-c2cccc(C(=O)Nc3ccccc3CC(=O)O)c2)c1 [Example 90, (R)-2-(2-(3′-(1-aminoethyl)-[1,1′-biphenyl]-3-ylcarboxamido)phenyl)acetic acid] | 6.08 |
| COc1c(C(=O)Nc2ccccc2CC(=O)O)cccc1-c1cccc(CN)c1 [Example 91, 2-(2-(3′-(Aminomethyl)-2-methoxy-[1,1′-biphenyl]-3-ylcarboxamido)phenyl)acetic acid] | 4.65 |
| COc1c(C(=O)Nc2ccccc2CC(=O)O)cccc1-c1cc(F)cc(CN)c1 [Example 93-B, 2-(2-(3′-(Aminomethyl)-5′-fluoro-2-methoxy-[1,1′-biphenyl]-3-ylcarboxamido)phenyl)acetic acid] | 5.17 |
| N[C@H](CCO)c1cccc(-c2cc(COc3ccccc3CC(=O)O)cc(NCC3CC3)c2)c1 [Example 94-C, (R)-2-(2-((3′-(1-amino-3-hydroxypropyl)-5-((cyclopropylmethyl)amino)-[1,1′-biphenyl]-3-yl)methoxy)phenyl)acetic acid] | 7.57 |
| CC(C)C(=O)Nc1cc(C(=O)Nc2ccccc2CC(=O)O)cc(-c2cc(F)cc(CN)c2)c1 [Example 97, 2-(2-(3′-(Aminomethyl)-5′-fluoro-5-isobutyramido-[1,1′-biphenyl]-3-ylcarboxamido)phenyl)acetic acid] | 7.35 |

More lines, in order of rising pIC50, values ahead:

| pIC50 | SMILES |
| --- | --- |
| 5.07 | NC1(c2cccc(-c3cccc(C(=O)Nc4ccccc4CC(=O)O)c3)c2)CC1 [Example 92, 2-(2-(3′-(1-Aminocyclopropyl)-[1,1′-biphenyl]-3-ylcarboxamido)phenyl)acetic acid] |
| 5.28 | N[C@@H](CCO)c1cccc(-c2cccc(C(=O)Nc3ccccc3CC(=O)O)c2)c1 [Example 89, (S)-2-(2-(3′-(1-Amino-3-hydroxypropyl)-[1,1′-biphenyl]-3-ylcarboxamido)phenyl)acetic acid] |
| 5.65 | NCc1cc(F)cc(-c2cc(C(=O)O)cc(C(=O)Nc3ccccc3CC(=O)O)c2)c1 [Example 95-B, 3′-(Aminomethyl)-5-((2-(carboxymethyl)phenyl)carbamoyl)-5′-fluoro-[1,1′-biphenyl]-3-carboxylic acid] |
| 5.73 | NCc1cccc(-c2cccc(OCc3ccccc3CC(=O)O)n2)c1 [Example 99-C, 2-(2-(((6-(3-(Aminomethyl)phenyl)pyridin-2-yl)oxy)methyl)phenyl)acetic acid] |
| 6.02 | N[C@H](CCO)c1cccc(-c2cccc(C(=O)Nc3ccccc3CC(=O)O)c2)c1 [Example 88, (R)-2-(2-(3′-(1-Amino-3-hydroxypropyl)-[1,1′-biphenyl]-3-ylcarboxamido)phenyl)acetic acid] |
| 6.84 | C[C@@H](N)c1cccc(-c2cc(OC[C@@H]3CCCO3)cc(C(=O)Nc3ccccc3CC(=O)O)c2)c1 [Example 80-C, 2-(2-(3′-((R)-1-Aminoethyl)-5-(((S)-tetrahydrofuran-2-yl)methoxy)-[1,1′-biphenyl]-3-ylcarboxamido)phenyl)acetic acid] |
| 7.26 | NCc1cc(F)cc(-c2cc(C(=O)Nc3ccccc3CC(=O)O)cc(N3CCOCC3)c2)c1 [Example 77-B, 2-(2-(3′-(Aminomethyl)-5′-fluoro-5-morpholino-[1,1′-biphenyl]-3-ylcarboxamido)phenyl)acetic acid] |
| 7.59 | N[C@H](CO)c1cccc(-c2cccc(COc3c(F)cccc3CC(=O)O)c2)c1 [Example 75-B, (S)-2-(2-((3′-(1-Amino-2-hydroxyethyl)-[1,1′-biphenyl]-3-yl)methoxy)-3-fluorophenyl)acetic acid] |
| 7.66 | COCCOc1cc(C(=O)Nc2ccccc2CC(=O)O)cc(-c2cc(F)cc(CN)c2)c1 [Example 73-C, 2-(2-(3′-(Aminomethyl)-5′-fluoro-5-(2-methoxyethoxy)-[1,1′-biphenyl]-3-ylcarboxamido)phenyl)acetic acid] |
| 7.66 | COCCNc1cc(C(=O)Nc2ccccc2CC(=O)O)cc(-c2cccc([C@H](N)CO)c2)c1 [Example 83-D, (S)-2-(2-(3′-(1-amino-2-hydroxyethyl)-5-((2-methoxyethyl)amino)-[1,1′-biphenyl]-3-ylcarboxamido)phenyl)acetic acid] |
| 7.68 | CCC(=O)Nc1cc(C(=O)Nc2ccccc2CC(=O)O)cc(-c2cc(F)cc(CN)c2)c1 [Example 96-D, 2-(2-(3′-(Aminomethyl)-5′-fluoro-5-propionamido-[1,1′-biphenyl]-3-ylcarboxamido)phenyl)acetic acid] |
| 7.70 | N[C@H](CO)c1cccc(-c2cc(OC[C@@H]3CCCO3)cc(C(=O)Nc3ccccc3CC(=O)O)c2)c1 [Example 81, 2-(2-(3′-((S)-1-Amino-2-hydroxyethyl)-5-(((S)-tetrahydrofuran-2-yl)methoxy)-[1,1′-biphenyl]-3-ylcarboxamido)phenyl)acetic acid] |
| 7.72 | Cc1cc(Nc2cc(C(=O)Nc3ccccc3CC(=O)O)cc(-c3cc(F)cc(CN)c3)c2)n(C)n1 [Example 79-I] |
| 7.77 | Cc1cc(Nc2cc(C(=O)Nc3ccccc3CC(=O)O)cc(-c3cc(F)cc(CN)c3)c2)[nH]n1 [Example 79-H] |
| 8.05 | CNC(=O)c1cc(COc2cc(C(=O)Nc3ccccc3CC(=O)O)cc(-c3cc(F)cc(CN)c3)c2)ccn1 [Example 71, 2-(2-(3′-(Aminomethyl)-5′-fluoro-5-((2-(methylcarbamoyl)pyridin-4-yl)methoxy)-[1,1′-biphenyl]-3-ylcarboxamido)phenyl)acetic acid] |
| 8.05 | NCc1cccc(-c2cc(OC[C@H]3CCCO3)cc(C(=O)Nc3ccccc3CC(=O)O)c2)c1 [Example 74-D, (R)-2-(2-(3′-(Aminomethyl)-5-((tetrahydrofuran-2-yl)methoxy)-[1,1′-biphenyl]-3-ylcarboxamido)phenyl)acetic acid] |
| 8.05 | NCc1cc(F)cc(-c2cc(NC3CCOC3)cc(C(=O)Nc3ccccc3CC(=O)O)c2)c1 (stereo not shown) [Example 79-B] |
| 8.30 | NCc1cc(F)cc(-c2cc(NCC3CCOC3)cc(C(=O)Nc3ccccc3CC(=O)O)c2)c1 (stereo not shown) [Example 79-A] |
| 8.30 | COCCNc1cc(COc2ccccc2CC(=O)O)cc(-c2cccc([C@H](N)CO)c2)c1 [Example 84, (S)-2-(2-((3′-(1-Amino-2-hydroxyethyl)-5-((2-methoxyethyl)amino)-[1,1′-biphenyl]-3-yl)methoxy)phenyl)acetic acid] |
| 8.40 | CC(C)CC(=O)Nc1cc(C(=O)Nc2ccccc2CC(=O)O)cc(-c2cc(F)cc(CN)c2)c1 [Example 98, 2-(2-(3′-(Aminomethyl)-5′-fluoro-5-(3-methylbutanamido)-[1,1′-biphenyl]-3-ylcarboxamido)phenyl)acetic acid] |
